± gives the expanded uncertainty stated by the source.
Conditions: 298.15 K; 101.33 kPa; Liquid; Vibrating tube method
In the case of `Cc1ccccc1C` [1,2-dimethylbenzene], the mass density is reported as 875.52 ± 0.23 kg/m3. `Cc1ccc(C)cc1` [1,4-dimethylbenzene] gave a mass density of 856.65 ± 0.23 kg/m3. `CC(=O)CC(C)C` [4-methylpentan-2-one] gave a mass density of 798.09 ± 0.24 kg/m3. Work on `C=CC(=O)O` [propenoic acid] yielded a mass density of 1059.17 ± 0.32 kg/m3. With `Cc1ccccc1` [toluene] the mass density was 862.34 ± 0.23 kg/m3.

— the NIST ThermoML archive (doi:10.1021/je201130h)
